Source: US20250082759A1, “COMPOSITIONS COMPRISING THERAPEUTIC NUCLEIC ACID AND TARGETED SAPONIN FOR THE TREATMENT OF MUSCLE-WASTING DISORDERS” (SAPREME TECHNOLOGIES B.V., priority 2021, published 2025)
Oligonucleotides are written 5' to 3', each unit as a sugar letter and its base; * is a phosphorothioate linkage, no mark a phosphodiester; rarer units and linkages stand in square brackets, end groups in braces. Plain capitals give the bases only. m = 2'-O-methyl

Tests used:
dystrophin exon 51 = experiment: Exon 51 skip analysis in differentiated human myotubes from a non-DMD (healthy) donor (KM155); format: cell-based; settings: for % exon skipping: 72 hrs
Method: Immortalized human myoblasts from non-DMD donors (KM155) and myoblasts from a DMD-affected donor (DM8036) were cultured in Skeletal Muscle Cell Growth Medium (PromoCell, Germany) with supplementary pack according to manufacturer's instructions, further supplemented with 15% fetal bovine serum (Gibco, United Kingdom), and 0.5% gentamicin (Sigma-Aldrich, USA). For differentiation, cells were seeded on a 0.5% gelatine-coated surface, and at ˜70-80% confluence, the proliferation medium was replaced by DMEM (Gibco) supplemented with 2% FBS (Gibco), 2% GlutaMAX, and 1% glucose (Sigma-Aldrich) and 0.5% gentamycin. Treatments were started after at least 3 days up to a maximum of 5 days of differentiation (based on the presence of differentiated myotubes).
RNA was isolated with the TRIsure Isolation Reagent (Bioline) and chloroform extraction; isopropanol precipitation of RNA from the aqueous phase was performed as known to someone skilled in the art. For cDNA synthesis, 1000 ng of total RNA was used and diluted in an appropriate amount of RNase-free water to yield 8 μl RNA dilution. The priming premixed contained 1 μl dNTP mix (10 mM each) and 1 μl specific reverse primer (for KM155, h53R 5′-[…]-3′ [SEQ ID NO: 5]; for DM8036, h55R 5′-[…]-3′ [SEQ ID NO: 6]). This mixture was heated for 5 min at 70° C., then chilled on ice for at least 1 min. A reaction mixture was prepared containing 0.5 μl rRNasin (Promega), 4.0 μl RT buffer, 1.0 μl Tetro RT (Bioline), and 4.5 μl RNase-free water, and was added to the chilled mixture to yield a total volume of 20 μl per reaction. The RT-PCR was run for 60 min at 42° C., then 5 min at 85° C., and chilled on ice. For skip analysis, a nested PCR approach was followed. To this end, in the first PCR, 3 μl cDNA were added to a mix of 2.5 μl 10× SuperTaq PCR buffer, 0.5 μl dNTP mix (10 mM each), 0.125 μl Taq DNA polymerase TAQ-RO (5 U/μl; Roche) 16.875 μl RNase-free water and 1 μl (10 pmol/μl) of each primer flanking the targeted exons were used: for KM155, h48F 5′-[…]-3′ [SEQ ID NO: 7] and h53R 5′-[…]-3′ [SEQ NO: ID 5]; for DM8036, h47F2 5′-[…]-3′ [SEQ ID NO: 8] and h54R 5′-[…]-3′ [SEQ ID NO: 9]. These samples were subjected to a PCR run of 5 min at 94° C., then 25 cycles with 40 sec at 94° C., 40 sec at 60° C., 180 sec at 72° C., after which for 7 min at 72° C. For the second PCR, 1.5 μl PCR1 sample were added to a mix of 5 μl 10× SuperTaq PCR buffer, 1 μl dNTP mix (10 mM each), 0.25 μl Taq DNA polymerase TAQ-RO (5 U/μl; Roche), 38.25 μl RNase-free water and 2 μl (10 pmol/μl) of each primer flanking the targeted exons were used: for KM155, h49F 5′-[…]-3′ [SEQ ID NO: 10] and h52R2 5′-[…]-3′ [SEQ ID NO: 11]; for DM8036, h47F 5′-[…]-3′ [SEQ ID NO: 12] and h53R 5′-[…]-3′ [SEQ ID NO: 13]. These samples were subjected to a PCR run of 5 min at 94° C., then 32 cycles with 40 sec at 94° C., 40 sec at 60° C., 60 sec at 72° C., after which for 7 min at 72° C. Exon skipping levels were quantified with the Femto Pulse System using the Ultra Sensitivity NGS Kit (Agilent), according to the manufacturer's instructions. Alternatively, the specific PCR fragments were analyzed using Bioanalyzer 2100 with DNA1000 chip (lab-on-a-chip; Agilent), or separated on 2% agarose gels run at 120 V. Gels were imaged and band intensities were quantified using ImageJ. The expected non-skipped product has a size of 408 bp (KM155) and 475 bp (DM8036), and the skip product of 175 bp (KM155) or 242 bp (DM8036), respectively.
Immortalized human myoblasts from non-DMD donors (KM155) were cultured as described above in the Methods (as performed in Examples 1-5).
RNA was isolated with the TRIsure Isolation Reagent (Bioline) and chloroform extraction; isopropanol precipitation of RNA from the aqueous phase was performed as known to someone skilled in the art. […]

dystrophin exon 23 = experiment: Exon 23 skip analysis in differentiated murine C2C12 myotubes; format: cell-based, mouse
Method: Murine myoblast cell line C2C12 was maintained in 10% FBS DMEM medium+Pen/Strep and plated at 240,000 cells per well (cpw) in 24-well plates or 40,000 cpw in 96-well plates (wp) in maintenance medium (10% FBS in DMEM medium+Pen/Strep) and incubated at 37° C. with 5% CO2. Twenty-four hours after seeding, cells were switched to differentiation media (2% horse serum in DMEM) and incubated for 3 days before refreshing the medium. After another 24 hours, medium was refreshed again and compounds were added and incubated for 48 hours. Differentiation medium was then refreshed (without compounds), and cells were incubated for another 24 hours. At 72 hours total post treatment, cells in the 24-wp were harvested for exon skip analysis and the cell viability was assessed on the 96-wp.
For analysis of skip from murine cell lines, cells were harvested and RNA was isolated using 0.5 ml TRIzol™ Reagent (Thermo Scientific) per sample, according to the manufacturer's instruction. For analysis of tissue, 30-50 mg frozen tissue was first cut into smaller pieces and mRNA was isolated using TRIzol™ Reagent (Thermo Scientific) and a TissueLyser LT (Qiagen) according to the manufacturer's instruction. For cDNA synthesis per sample, to 0.5 μg RNA in 5.0 μl, 10.0 μl ddH2O, 4 μl 5× iScript™ Reaction Mix and 1.0 μl iScript™ Reverse Transcriptase (BioRad) were added to yield a total volume of 20.0 μl per reaction. The RT-PCR was run for 5 min at 25° C., 60 min at 46° C., and 2 min at 95° C. For skip analysis, SapphireAmp™ Fast PCR Master Mix (TakaraBio) was used according to the manufacturer's instructions. To this end, 9.7 μl RNAse free water, 12.5 μl of 2× Master Mix, 0.4 μl of 10 μM FW primer 5′-[…]-3′ (SEQ ID NO: 14) and 0.4 μl of […] RV primer 5′-[…]-3′ (SEQ ID NO: 15) were added to a PCR tube, mixed, after which 2 μl cDNA (50 ng) was added, to yield a total volume of 25 μl. These samples were subjected to a PCR run of 1 min at 94° C., 35 cycles of 5 sec at 98° C., 5 sec at 55° C., 5 sec at 72° C., followed by 1 min at 72° C. Samples were mixed with 2 μl 6× loading buffer, then 16 μl were loaded onto an 2% agarose gel and ran for 60-90 min at 80 V. Gels were imaged and band intensities were quantified with a ChemiDoc™ XRS+System and Image Lab™ Software (BioRad). The expected non-skipped product has a size of 788 bp, and the skip product of 575 bp, respectively.
Murine myoblast cell line C2C12 was maintained in 10% FBS DMEM medium+Pen/Strep and plated at 240,000 cells per well (cpw) in 24-well plates, or at 40,000 cpw in 96-well plates (wp), in maintenance medium (10% FBS in DMEM medium+Pen/Strep) and incubated at 37° C. with 5% CO2. Twenty-four hours after seeding, cells were switched to differentiation media (2% horse serum in DMEM) and incubated for 3 days before refreshing the medium. After another 24 hours, medium was refreshed again and compounds were added and incubated for 48 hours. At 48 hours total post treatment, cells in the 24-wp were harvested for exon skip analysis and the cell viability was assessed on the 96-wp.
Performed as described above in the Methods (as performed in Examples 1-5).

DMD-ASO: 2′O-methyl-phosporothioate antisense oligonucleotide 5′-UCAAGGAAGAUGGCAUUUCU-3′ [SEQ ID NO: 1]; exon 51 skipping; same sequence and chemistry as drisapersen (antisense mU*mC*mA*mA*mG*mG*mA*mA*mG*mA*mU*mG*mG*mC*mA*mU*mU*mU*mC*mU; further chemistry not fully specified)
improvement in potency with vs without SO1861-EMCH or SO1861-SC-Mal co-administration (dystrophin exon 51): one to two orders of magnitude lower
% exon skipping (dystrophin exon 51; 0.08 μM DMD oligo alone, Lab-on-a-chip): 0%
% exon skipping (dystrophin exon 51; 0.31 μM DMD oligo alone, Lab-on-a-chip): 0%
% exon skipping (dystrophin exon 51; 1.25 μM DMD oligo alone, Lab-on-a-chip): 0%
% exon skipping (dystrophin exon 51; 5 μM DMD oligo alone, Lab-on-a-chip): 1%

DMD-PMO: PMO 5′-CTCCAACATCAAGGAAGATGGCATTTCTAG-3′ [SEQ ID NO: 2]; exon 51 skipping; same sequence but not 5′-modifications as eteplirsen (all phosphorodiamidate morpholino (PMO))
improvement in potency with vs without SO1861-EMCH or SO1861-SC-Mal co-administration (dystrophin exon 51): one to two orders of magnitude lower
% exon skipping (dystrophin exon 51; 0.08 μM DMD oligo alone, Femto): 0%
% exon skipping (dystrophin exon 51; 0.31 μM DMD oligo alone, Femto): 0%
% exon skipping (dystrophin exon 51; 1.25 μM DMD oligo alone, Femto): 0%
% exon skipping (dystrophin exon 51; 5 μM DMD oligo alone, Femto): 0%
% exon skipping (dystrophin exon 51; 20 μM DMD oligo alone, Femto): 4%

IGF-1-SO1861+500 nM M23D: IGF-1-SO1861 (DAR2.7) co-administered with 500 nM M23D
exon 23 skip (dystrophin exon 23; 133 nM IGF-1-SO1861 + 500 nM M23D): 8%
exon 23 skip (dystrophin exon 23; 667 nM IGF-1-SO1861 + 500 nM M23D): 11%
exon 23 skip (dystrophin exon 23; 3333 nM IGF-1-SO1861 + 500 nM M23D): 19%

M23D: PMO 5′-GGCCAAACCTCGGCTTACCTGAAAT-3′ [SEQ ID NO: 3] that induces exon 23 skipping of mouse dystrophin (all phosphorodiamidate morpholino (PMO))
exon 23 skip (dystrophin exon 23; 500 nM M23D alone (0 nM conjugate)): 5%
exon 23 skip activity (dystrophin exon 23; 500 nM M23D alone, 48 h): no exon skip activity
